How the values were obtained:
Ir-LBP [1] = target: T1, Ir-LBP (Ixodes ricinus, UniProt B7ZDG7); experiment: Saturation curve and Scatchard analysis for LTB4 binding to Ir-LBP (Figure 1A), ligand as substance; settings: saturation curve, 3H-LTB4
Ir-LBP [2] = target: T1, Ir-LBP; experiment: Competitive binding: inhibition of 3H-LTB4 binding to Ir-LBP by eicosanoids; settings: 2 h; for decrease of the binding of 1 nM 3H-LTB4 to Ir-LBP: competitor at 10 µM
Description: The specificity of this binding was then evaluated by incubating Ir-LBP with increasing concentrations of different eicosanoids (LTB4, LTD4, LTC4, LTE4, 12(R)-hydroxyeicosatetraenoic acid (HETE), 15(S)-hydroxyperoxyeicosatetraenoic acid (HpETE), LTA4 methyl ester and 5 (S), 6 (R)-Lipoxin A4) in the presence of a fixed concentration of ^3H-LTB4 (Figure 1B). […] On the other hand, only at a very high concentration of 10 µM were LTD4, LTE4 and 12(R)-HETE able to decrease the binding of 1 nM of ^3H-LTB4 to Ir-LBP by approximately 30%. […] Furthermore, this interaction is reversible. The addition of an excess of cold LTB4 (10 µM) for 2 h displaces the binding between Ir-LBP and 1 nM of ^3H-LTB4 (data not shown). […] This binding may only be displaced by very high concentrations (10 µM versus nM) of eicosanoid analogs.
(§1) The dissociation constant was measured in PBS (pH 7.4) using purified Ir-LBP and an increasing amount of ^3H-LTB4. Non-specific binding was determined by measuring bound radioactivity in the absence of Ir-LBP. Protein precipitation with polyethylene glycol 8000 was used to separate bound from free histamine. Protein-bound radioactivity was determined with a Wallac 1409 scintillation counter. Saturation experiments were analyzed by non-linear regression using the curve fitting program GraphPad Prism® (GraphPad software, San Diego, CA, U.S.A.), B = (Bmax [F])/KD+[F]), where B is the amount of bound ligand at equilibrium, Bmax is the maximum number of binding sites, [F] is the concentration of free ligand and KD is the ligand dissociation constant. Competitive binding assays were performed using purified Ir-LBP with 1 nM of ^3H-LTB4 and an increasing amount of unlabelled competitor for 2 h.

Human neutrophils = experiment: Neutrophil apoptosis assay (Annexin-V-FITC/PI, flow cytometry); type: cell-based; settings: LTB4 10^-7 M, 24 h of culture
Description: Human blood neutrophils were obtained from buffy coats (Transfusion Center, Liege, Belgium). Neutrophils were separated from mononuclear cells by density centrifugation (Histopaque; Sigma-Aldrich). Contaminating erythrocytes were removed from the neutrophil fraction by hypotonic lysis. Neutrophil purity, determined by counting cytospin preparations stained with Diff-Quick (Dade Behring), was always >95%. Neutrophils were cultured at a density of 2×10^6 cells/ml in RPMI-1640 supplemented with 1% glutamine, 10% FCS, 50 µg/ml streptomycin, and 50 IU/ml penicillin (all from Gibco BRL). Neutrophils were cultured in the absence or presence of 10^−7 M LTB4 (Sigma-Aldrich) and/or 0.2–2 µg/ml Ir-LBP.
Apoptosis was assessed by staining with Annexin-V-FITC and propidium iodide (PI) using the Annexin-V-FLUOS staining kit (Roche), following the manufacturer's recommendations. Flow cytometry analyses were performed with a FACSAria™ (BD Biosciences).

BLT1 = target: BLT1; design: method as in PMID 6097945, PMID 6323613, PMID 2823316; settings: read-out: Kd of BLT1 for LTB4; cited from earlier work
BLT2 = target: BLT2; design: method as in PMID 10934230; settings: read-out: Kd of BLT2 for LTB4; cited from earlier work
R53T/R73A = test system: T2, R53T/R73A; experiment: Saturation binding of ^3H-LTB4 (PBS pH 7.4, PEG 8000 precipitation) to wild-type and mutant Ir-LBP expressed in 293T cells.; settings: SD
T2 construct: pCDNA3.1/V5-His-TOPO, expressed in 293T cells
Source text: (§2) In order to determine which amino acids of Ir-LBP are involved in the binding to LTB4, we produced mutants designed on the basis of the dynamic model established in silico. […] For the interaction with the second hydroxyl group, the residue selected to be mutated is Arg 73. The choice was made on this residue because Glu 188 is conserved for all LIRs and should thus not be as specific as Arg 73; furthermore, Arg 53 is bridged to Arg 73 by an aspartic residue from the loop corresponding to the Ω loop in Ra-HBP2. The two hydroxyl groups and the two Arg bridged by Asp Ω could form an interacting network, further stabilizing the binding with LTB4. Two single mutants were therefore produced by replacing Arg 53 with threonine (R53T) and Arg 73 with alanine (R73A). A double mutant (R53T/R73A) was also produced by combining the 2 substitutions of the single mutants. A null mutant was also constructed by replacing serine 124 with threonine (S124T). […] Therefore, the affinity of this mutant for LTB4 should not be affected. These mutants and “wild type” Ir-LBP were expressed in 293T cells, and analyzed to determine their dissociation constant for LTB4.
(§3) Site-directed mutagenesis of Ir-LBP in pCDNA3.1/V5-His-TOPO
(§4) Subconfluent 293T cells in 35-mm diameter wells (Orange Scientific) were transfected with […] plasmid DNA and […] Fugene 6 (Roche Biochemicals) in Dulbecco's modified Eagle's medium (DMEM, Invitrogen) without FCS. The medium was harvested after 72 h. Pooled supernatants were cleared by centrifugation, concentrated 10-fold by filtration on 10000 NMWL membranes (Millipore), ultracentrifuged at 140,000 g before use, and finally stored at −80°C. Concentrated culture supernatants were analyzed by western blotting on a Hybond ECL membrane (GE healthcare) using an anti-V5 primary antibody (Invitrogen), an IgHRP conjugate as secondary antibody and the ECL detection reagent (GE healthcare) according to the manufacturer's instructions. The coding regions of Ir-LBP were amplified by PCR (94°C for 30 s, 56°C for 30 s, 72°C for 1 min.; 30 cycles) using ExTaq DNA Polymerase (Taqara). […]
as §1, with “Protein precipitation with polyethylene glycol 8000 was used to separate bound from free histamine.” left out, “Competitive binding assays were performed using purified Ir-LBP with 1 nM of ^3H-LTB4 and an increasing amount of unlabelled competitor for 2 h.” left out

R53T = test system: T3, R53T; experiment: as above; settings: SD
T3 construct: pCDNA3.1/V5-His-TOPO, expressed in 293T cells
Source text: as §2, §3, §4
as §1, with “Protein precipitation with polyethylene glycol 8000 was used to separate bound from free histamine.” left out, “Competitive binding assays were performed using purified Ir-LBP with 1 nM of ^3H-LTB4 and an increasing amount of unlabelled competitor for 2 h.” left out

R73A = test system: T4, R73A; experiment: as above; settings: SD
T4 construct: pCDNA3.1/V5-His-TOPO, expressed in 293T cells
Source text: as §2, §3, §4
as §1, with “Protein precipitation with polyethylene glycol 8000 was used to separate bound from free histamine.” left out, “Competitive binding assays were performed using purified Ir-LBP with 1 nM of ^3H-LTB4 and an increasing amount of unlabelled competitor for 2 h.” left out

S124T = test system: T5, S124T; experiment: as above; settings: SD
T5 construct: pCDNA3.1/V5-His-TOPO, expressed in 293T cells
Source text: as §2, §3, §4
as §1, with “Protein precipitation with polyethylene glycol 8000 was used to separate bound from free histamine.” left out, “Competitive binding assays were performed using purified Ir-LBP with 1 nM of ^3H-LTB4 and an increasing amount of unlabelled competitor for 2 h.” left out

neutrophils [3] = test system: neutrophils; design: method as in PMID 12770944, PMID 10588632; settings: BLT1 antagonists; cited from earlier work
neutrophils [4] = test system: neutrophils; design: method as in PMID 9261334; settings: BLT1 and BLT2 antagonist; cited from earlier work

T1 sequence (B7ZDG7 20-200 limits assumed): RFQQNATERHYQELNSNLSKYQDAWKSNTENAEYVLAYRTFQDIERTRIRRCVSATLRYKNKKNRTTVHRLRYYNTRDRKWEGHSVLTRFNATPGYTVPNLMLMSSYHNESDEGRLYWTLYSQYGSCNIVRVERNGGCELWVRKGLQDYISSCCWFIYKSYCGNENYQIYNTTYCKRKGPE

## CCCCC/C=C\C[C@@H](O)/C=C/C=C/C=C\[C@@H](O)CCCC(=O)O [LTB4, Leukotriene B4]
Ir-LBP [1]
  Kd: 0.59 nM
Ir-LBP [2]; 1 nM 3H-LTB4, unlabelled competitor
  IC50: 5.7 nM
Human neutrophils
  apoptosis levels versus untreated controls: significantly lower
BLT1
  Kd: ~1 nM
BLT2
  Kd: ~23 nM

## CCCCC[C@H](O)/C=C/C=C\C=C\C=C\[C@@H](O)[C@@H](O)CCCC(=O)O [5(S), 6(R)-Lipoxin A4, 5 (S), 6 (R)-Lipoxin A4]
Ir-LBP [2]
  decrease of the binding of 1 nM 3H-LTB4 to Ir-LBP: unable to compete

## CCCCC/C=C\C[C@@H](O)/C=C/C=C\C/C=C\CCCC(=O)O [12(R)-HETE, 12(R)-hydroxyeicosatetraenoic acid]
Ir-LBP [2]
  decrease of the binding of 1 nM 3H-LTB4 to Ir-LBP: approximately 30%

## CCCCC/C=C\C\C=C/C=C/C=C/[C@@H](SC[C@H](N)C(=O)NCC(=O)O)[C@@H](O)CCCC(=O)O [LTD4]
Ir-LBP [2]
  decrease of the binding of 1 nM 3H-LTB4 to Ir-LBP: approximately 30%

## CCCCC/C=C\C[C@@H](O)/C=C/C=C/C=C\[C@@H](O)CCCC(=O)O [^3H-LTB4, tritiated leukotriene B4]
R53T/R73A
  Kd: 4.23 nM
R53T
  Kd: 0.43 nM
R73A
  Kd: 0.87 nM
S124T
  Kd: 0.45 nM

## CCCCC/C=C\C\C=C/C=C/C=C/[C@@H](SC[C@H](NC(=O)CC[C@H](N)C(=O)O)C(=O)NCC(=O)O)[C@@H](O)CCCC(=O)O [LTC4]
Ir-LBP [2]
  decrease of the binding of 1 nM 3H-LTB4 to Ir-LBP: unable to compete

## O=C(O)C1(c2ccc3c(c2)OC[C@H](Cc2ccc(-c4ccccc4)cc2)[C@H]3O)CCCC1 [CP-105696]
Neutrophils [3]
  inhibition of the apoptosis delay induced by LTB4: capable of inhibiting

## COc1ccc(CCCCCCCCOc2ccc(C[S+]([O-])c3cccc(N)c3)nc2/C=C/C(=O)[O-])cc1.[Li+] (stereo not shown) [SB201146]
Neutrophils [3]
  inhibition of the apoptosis delay induced by LTB4: capable of inhibiting

## COc1ccc(/C=C/CCCCOc2cccc(OCCCCC(=O)O)c2CCC(=O)O)cc1 [ONO-4057]
Neutrophils [4]
  inhibition of endothelial transmigration of neutrophils: totally inhibits

## CCCCC/C=C\C\C=C/C=C/C=C/[C@@H](SC[C@H](N)C(=O)O)[C@@H](O)CCCC(=O)O [LTE4]
Ir-LBP [2]
  decrease of the binding of 1 nM 3H-LTB4 to Ir-LBP: approximately 30%

## CCCCC[C@@H](/C=C/C=C\C/C=C\C/C=C\CCCC(=O)O)OO [15(S)-HpETE, 15(S)-hydroxyperoxyeicosatetraenoic acid]
Ir-LBP [2]
  decrease of the binding of 1 nM 3H-LTB4 to Ir-LBP: unable to compete

## CCCCC/C=C\C\C=C/C=C/C=C/[C@@H]1O[C@H]1CCCC(=O)OC [LTA4 methyl ester]
Ir-LBP [2]
  decrease of the binding of 1 nM 3H-LTB4 to Ir-LBP: unable to compete
